Entries after “also recorded” stand apart in the source; their conditions may differ.
Tested on: patients with Friedreich ataxia
Assay: Phase I-II open pilot trial: ICARS, Perdue Pegboard and parents' observations (patients kept on idebenone)
Format: in vivo, human
Conditions: for Perdue pegboard: number of nails inserted
Description: Ten adolescents (four males, six females aged 14 to 23 yrs) with a diagnosis of Friedreich ataxia, confirmed by detection of a trinucleotide-repeat expansion in the first intron of the frataxin gene, were studied. Patients received deferiprone (Ferriprox™, Apotex Inc., Toronto, Canada) orally, in two doses for 1-5 months. Three patients were included, sequentially, for a minimum period of two months at each dose. Patient enrollment was staggered by two-weeks to enable monitoring of response. In the absence of toxicity, and with evidence of efficacy in any of the first 3 patients, a second group of 3 patients would be included at the same dose for a total duration of 6 months. If there was an absence of both efficacy and toxicity, the second group of three patients would be administered a higher dose. If toxicity developed, the current dose would be suspended and the trial resumed with the next group of patients at a lower dose. The patients were on idebenone (10 mg/kg/day, in three doses) for at least two years prior to inclusion and were kept on the drug at the same dose for the duration of the trial. MRI examinations were done at inclusion and at 1, 2, 4 and 6 months. The protocol was promoted by Assistance Publique-Hopitaux de Paris and approved by the local ethical committee and registered at the National Health Authority (AFSSAPS) and at the International Protocol Registration System (www.clinicaltrials.gov). A written informed consent was obtained from patients and parents.
The International Cooperative Ataxia Rating Score (ICARS) was used to assess the symptoms of ataxia before and after 1-5 months (Cano et al. International cooperative ataxia rating scale (ICARS): Appropriate for studies of Friedreich's ataxia? Mov Disord 2005; 20:1585-91). This scale has four subscales: posture and gait disturbance, kinetic functions, speech disorders and oculomotor disorders. Subscale scores are summed to give a total score ranging from 0 to 100. High scores indicated worse ataxia. The Perdue Pegboard test, which assesses speed of performance, delicate movements and manipulative dexterity, was included in the course of the study. This test assesses the ability of the participant to insert as many nails as possible into preset holes, linearly dug in a wooden board in a limited space of time (20 seconds with the two hands, separately and together). The tests were administered by the same investigator. Patients were monitored for neutropenia, agranulocytosis, musculoskeletal pains and zinc deficiency and had weekly blood counts, plasma iron, serum ferritin and transferrin concentration measurements, as well as assessments of renal and liver function.

[1] = patient eight, DFP 20 mg/kg, 4 mth, after trial
[2] = patient eight, DFP 20 mg/kg, 4 mth, prior to trial
[3] = patient five, DFP 30 mg/kg, 1 mth, after trial
[4] = patient five, DFP 30 mg/kg, 1 mth, prior to trial
[5] = patient four, DFP 20 mg/kg, 2 mth, after trial
[6] = patient four, DFP 20 mg/kg, 2 mth, prior to trial
[7] = patient one, DFP 20 mg/kg, 5 mth, after trial
[8] = patient one, DFP 20 mg/kg, 5 mth, prior to trial
[9] = patient six, DFP 30 mg/kg, 1 mth, after trial
[10] = patient six, DFP 30 mg/kg, 1 mth, prior to trial
[11] = patient three, DFP 20 mg/kg, 2 mth, after trial
[12] = patient three, DFP 20 mg/kg, 2 mth, prior to trial
[13] = patient two, DFP 20 mg/kg, 3 mth, after trial
[14] = patient two, DFP 20 mg/kg, 3 mth, prior to trial

For `Cc1c(O)c(=O)ccn1C` [Deferiprone, 3-hydroxy-1,2-dimethylpyridin-4-one], the “time to disappearance of constipation, incontinence and some subjective signs of peripheral neuropathy” value (20 mg/kg/day oral) was 1-2 months, the “neurological condition noted by parents and uninformed relatives” value (20 mg/kg/day oral, within a few weeks, all treated patients) was “unexpected neurological improvement” and the “changes of the ICARS scores” value (20 mg/kg/day, short period of the trial) was “mild changes of the ICARS scores”. For the same molecule, the “Perdue Pegboard test: speed of performances and dexterity” value (30 mg/kg/day oral, before and 1-2 months after onset) was “improvement of speed of performances and dexterity”, the “Kinetic function (/29)” value [1] was 7 and the “Oculomotor disorder (/6)” value [1] was 2. For the same molecule, the “Posture and gait disturbance: 7 items (/34)” value [1] was 9, the “Posture and gait disturbance: gait speed” value [1] was 1 and the “Posture and gait disturbance: spread feet” value [1] was 3. The “Posture and gait disturbance: standing eyes open” value [1] was 1, the “Posture and gait disturbance: walking” value [1] was 2 and the “Speech disorder (/8)” value [1] was 2. For the same molecule, the “Total ICARS (/100)” value [1] was 20, the Observation (patient eight, DFP 20 mg/kg, 4 mth, listed as DFP) was “no more incontinence, improved gait and balance, warming; also recorded: up of feet” and the “Kinetic function (/29)” value [2] was 7. The “Oculomotor disorder (/6)” value [2] was 2, the “Posture and gait disturbance: 7 items (/34)” value [2] was 12 and the “Posture and gait disturbance: gait speed” value [2] was 1. The “Posture and gait disturbance: spread feet” value [2] was 3, the “Posture and gait disturbance: standing eyes open” value [2] was 2 and the “Posture and gait disturbance: walking” value [2] was 3. For the same molecule, the “Speech disorder (/8)” value [2] was 2, the “Total ICARS (/100)” value [2] was 23 and the “Kinetic function (/29)” value [3] was 8. For the same molecule, the “Oculomotor disorder (/6)” value [3] was 2, the “Posture and gait disturbance: 7 items (/34)” value [3] was 8 and the “Posture and gait disturbance: gait speed” value [3] was 2. The “Posture and gait disturbance: spread feet” value [3] was 0, the “Posture and gait disturbance: standing eyes open” value [3] was 1 and the “Posture and gait disturbance: walking” value [3] was 2. For the same molecule, the “Speech disorder (/8)” value [3] was 2, the “Total ICARS (/100)” value [3] was 20 and the Observation (patient five, DFP 30 mg/kg, 1 mth, listed as DFP) was “no more constipation, incontinence and bending, improved; also recorded: balance and gait”. For the same molecule, the “Kinetic function (/29)” value [4] was 8, the “Oculomotor disorder (/6)” value [4] was 2 and the “Posture and gait disturbance: 7 items (/34)” value [4] was 11. For the same molecule, the “Posture and gait disturbance: gait speed” value [4] was 2, the “Posture and gait disturbance: spread feet” value [4] was 1 and the “Posture and gait disturbance: standing eyes open” value [4] was 2. For the same molecule, the “Posture and gait disturbance: walking” value [4] was 2, the “Speech disorder (/8)” value [4] was 2 and the “Total ICARS (/100)” value [4] was 23. For the same molecule, the “Kinetic function (/29)” value [5] was 12, the “Oculomotor disorder (/6)” value [5] was 0 and the “Posture and gait disturbance: 7 items (/34)” value [5] was 13. For the same molecule, the “Posture and gait disturbance: gait speed” value [5] was 1, the “Posture and gait disturbance: spread feet” value [5] was 2 and the “Posture and gait disturbance: standing eyes open” value [5] was 1. The “Posture and gait disturbance: walking” value [5] was 3, the “Speech disorder (/8)” value [5] was 2 and the “Total ICARS (/100)” value [5] was 27. The Perdue pegboard [5] was 29, the Perdue pegboard [6] was 37 and the “Kinetic function (/29)” value [6] was 13. For the same molecule, the “Oculomotor disorder (/6)” value [6] was 0, the “Posture and gait disturbance: 7 items (/34)” value [6] was 16 and the “Posture and gait disturbance: gait speed” value [6] was 1. For the same molecule, the “Posture and gait disturbance: spread feet” value [6] was 2, the “Posture and gait disturbance: standing eyes open” value [6] was 3 and the “Posture and gait disturbance: walking” value [6] was 3. For the same molecule, the “Speech disorder (/8)” value [6] was 2, the “Total ICARS (/100)” value [6] was 31 and the “Kinetic function (/29)” value [7] was 7. The “Oculomotor disorder (/6)” value [7] was 2, the “Posture and gait disturbance: 7 items (/34)” value [7] was 27 and the “Posture and gait disturbance: gait speed” value [7] was 3. The “Posture and gait disturbance: spread feet” value [7] was 2, the “Posture and gait disturbance: standing eyes open” value [7] was 4 and the “Posture and gait disturbance: walking” value [7] was 7. For the same molecule, the “Speech disorder (/8)” value [7] was 0, the “Total ICARS (/100)” value [7] was 37 and the Observation (patient one, DFP 20 mg/kg, 5 mth, listed as DFP) was “improved gait, writing, delicate movements, can move them; also recorded: toes, feels their feet, warming up of feet”. For the same molecule, the “Kinetic function (/29)” value [8] was 8, the “Oculomotor disorder (/6)” value [8] was 2 and the “Posture and gait disturbance: 7 items (/34)” value [8] was 28. The “Posture and gait disturbance: gait speed” value [8] was 3, the “Posture and gait disturbance: spread feet” value [8] was 3 and the “Posture and gait disturbance: standing eyes open” value [8] was 4. The “Posture and gait disturbance: walking” value [8] was 7, the “Speech disorder (/8)” value [8] was 1 and the “Total ICARS (/100)” value [8] was 39. The Observation (patient seven, DFP 20 mg/kg, 5 mth, listed as DFP) was “improved gait, writing, delicate movements, can move them; also recorded: toes, feels their feet, warming up of feet”, the Observation (patient six, DFP 30 mg/kg, 1 mth) was “improved gait and standing, no more constipation” and the “Kinetic function (/29)” value [9] was 9. For the same molecule, the “Oculomotor disorder (/6)” value [9] was 0, the “Posture and gait disturbance: 7 items (/34)” value [9] was 17 and the “Posture and gait disturbance: gait speed” value [9] was 1. The “Posture and gait disturbance: spread feet” value [9] was 2, the “Posture and gait disturbance: standing eyes open” value [9] was 2 and the “Posture and gait disturbance: walking” value [9] was 7. For the same molecule, the “Speech disorder (/8)” value [9] was 0, the “Total ICARS (/100)” value [9] was 26 and the Perdue pegboard [9] was 39. For the same molecule, the Perdue pegboard [10] was 52, the “Kinetic function (/29)” value [10] was 9 and the “Oculomotor disorder (/6)” value [10] was 0. For the same molecule, the “Posture and gait disturbance: 7 items (/34)” value [10] was 20, the “Posture and gait disturbance: gait speed” value [10] was 1 and the “Posture and gait disturbance: spread feet” value [10] was 2. The “Posture and gait disturbance: standing eyes open” value [10] was 3, the “Posture and gait disturbance: walking” value [10] was 7 and the “Speech disorder (/8)” value [10] was 0. The “Total ICARS (/100)” value [10] was 29, the “Kinetic function (/29)” value [11] was 11 and the “Oculomotor disorder (/6)” value [11] was 0. For the same molecule, the “Posture and gait disturbance: 7 items (/34)” value [11] was 16, the “Posture and gait disturbance: gait speed” value [11] was 2 and the “Posture and gait disturbance: spread feet” value [11] was 3. The “Posture and gait disturbance: standing eyes open” value [11] was 4, the “Posture and gait disturbance: walking” value [11] was 7 and the “Speech disorder (/8)” value [11] was 2. The “Total ICARS (/100)” value [11] was 29, the Perdue pegboard [11] was 44 and the Perdue pegboard [12] was 37. For the same molecule, the “Kinetic function (/29)” value [12] was 11, the “Oculomotor disorder (/6)” value [12] was 0 and the “Posture and gait disturbance: 7 items (/34)” value [12] was 17. For the same molecule, the “Posture and gait disturbance: gait speed” value [12] was 2, the “Posture and gait disturbance: spread feet” value [12] was 3 and the “Posture and gait disturbance: standing eyes open” value [12] was 5. The “Posture and gait disturbance: walking” value [12] was 7, the “Speech disorder (/8)” value [12] was 3 and the “Total ICARS (/100)” value [12] was 31. For the same molecule, the Observation (patient two, DFP 20 mg/kg, 3 mth) was “no more fatigue, improved delicate movements”, the “Kinetic function (/29)” value [13] was 21 and the “Oculomotor disorder (/6)” value [13] was 2. The “Posture and gait disturbance: 7 items (/34)” value [13] was 32, the “Posture and gait disturbance: gait speed” value [13] was 4 and the “Posture and gait disturbance: spread feet” value [13] was 4. The “Posture and gait disturbance: standing eyes open” value [13] was 6, the “Posture and gait disturbance: walking” value [13] was 7 and the “Speech disorder (/8)” value [13] was 4. The “Total ICARS (/100)” value [13] was 59, the “Kinetic function (/29)” value [14] was 21 and the “Oculomotor disorder (/6)” value [14] was 3. The “Posture and gait disturbance: 7 items (/34)” value [14] was 33, the “Posture and gait disturbance: gait speed” value [14] was 4 and the “Posture and gait disturbance: spread feet” value [14] was 4. The “Posture and gait disturbance: standing eyes open” value [14] was 6, the “Posture and gait disturbance: walking” value [14] was 7 and the “Speech disorder (/8)” value [14] was 4. The “Total ICARS (/100)” value [14] was 61.

Reference: patent publication US20090023784A1, “USE OF DEFERIPRONE AND METHODS TO TREAT AND/OR PREVENT FRIEDREICH ATAXIA RESULTING FROM INTRACELLULAR MISHANDLING OF IRON” (priority 2006, published 2009)
